Reference: US5079346A, “Gallium-labelled imaging agents” (priority 1990, dated 1992)
“And” between values parts separate entries of the source, which are not always exact repeats. Equal entries are not always repeated. Where two headings read alike, the source gives them in different places.

How the values were obtained:
[1] = literature; cited from earlier work
[2] = literature, cited from earlier work
[3] = Biodistribution in rats after an iv injection; type: in vivo, male Sprague Dawley rats; settings: for Biodistribution, Blood: blood assumed 7% of body weight; for Biodistribution, Muscle: muscle assumed 40% of body weight; for Brain/Blood: ratio
Experimental: Biodistribution of [^67 Ga]BAT-TECH was studied in male Sprague Dawley rats (200-250 g) which were allowed access to food and water ad lib. Saline solution containing [^67 Ga]BAT-TECH in a volume of 0.2 ml was injected directly into a femoral vein. Rats were sacrified (at various time points, 2, 30 and 60 min., post injection) by cardiac excision under ether anesthesia. The organs of interest were removed and counted using a well gamma counter. Percent dose per organ was calculated by comparison of tissue counts to suitably diluted aliquots of injected material. Total activities of blood and muscle were calculated assuming that they are 7% and 40% of total body weight, respectively. Each time point consists of a group of three rats.
2,9-Dimethyl-2,9-mercapto-5-(2-hydroxyphnyl)-4,7-diazadecane was labelled, and the biodistributino of the labelled compound measured, by analogous methods.

[4] = Lipid solubility (reverse phase HPLC, PRP-1 column); type: physicochemical; settings: PRP-1, pH 7
Experimental: At tracer concentrations, the aqueous chemistry has been studied using [^67 Ga] gallium citrate as the starting material. […] The ratio of ligand to ^67 Ga was determined to be […]. Presumably, under the conditions required for the preparation of the ^67 Ga complex, the cationic [^67 Ga(BAT-TECH)]^+ species is formed.

[5] = 1-octanol/0.1 m phosphate
Experimental: The partition coefficient of the [^67 Ga(BAT-TECH)]^+ complex was measured by mixing the compound with 3 g each of 1-octanol and buffer (pH 7.0 or 7.4, 0.1 M phosphate) in a test tube. This test tube was vortexed for 3 minutes at room temperature and then centrifuged for 5 minutes. Two weighed samples (0.5 g each) from the 1-octanol and buffer layers were counted in a well counter. The partition coefficient was determined by calculating the ratio of counts per minute/gram of octanol to that of buffer. Samples from the octanol layer were repartitioned until consistent partition coefficient values were obtained. The measurement was repeated three times.

[6] = rats, cited from earlier work
[7] = iv, versus [^68 Ga](5-MeOSal)3 TAME

CNC1=NN=CC(C)=NN=C(NC)[S][Cu][S]1 [Cu(PTSM), copper-labeled pyruvaldehyde bis(N4-methylthiosemicarbazone)]
lipid solubility [1]: neutral and lipid-soluble
intracellular stability ([2]; after interacting with sulfurhydryl groups): decomposes intracellularly
passage through the cell membrane / blood-brain barrier ([2]; after intravenous injection): passes through the cell membrane, including the intact blood-brain barrier

CC1(C)C[NH+]2CC(c3ccccc3O)[NH+]3CC(C)(C)[S][67Ga-]23[S]1 (stereo not drawn) [[^67 Ga]2,9-Dimethyl-2,9-Dimercapto-5-(2-hydroxyphenyl)-4,7-diazadecane]
Biodistribution, Brain ([3]; iv, 2 min): .026 ± .002 % dose/organ
Biodistribution, Heart ([3]; iv, 2 min): .940 ± .094 % dose/organ
Biodistribution, Kidney ([3]; iv, 2 min): 5.677 ± .266 % dose/organ
Biodistribution, Liver ([3]; iv, 2 min): 20.93 ± 4.13 % dose/organ
Biodistribution, Lung ([3]; iv, 2 min): 1.236 ± .155 % dose/organ
Biodistribution, Skin ([3]; iv, 2 min): .137 ± .023 % dose/organ
Biodistribution, Spleen ([3]; iv, 2 min): .431 ± .085 % dose/organ
Biodistribution, Blood ([3]; iv, 2 min): 11.240 ± .724 % dose/organ
Biodistribution, Muscle ([3]; iv, 2 min): 14.392 ± 2.91 % dose/organ
Brain/Blood ([3]; iv, 2 min): .028
Biodistribution, Brain ([3]; iv, 30 min): .019 ± .001 % dose/organ
Biodistribution, Heart ([3]; iv, 30 min): .380 ± .039 % dose/organ
Biodistribution, Kidney ([3]; iv, 30 min): 1.204 ± .080 % dose/organ
Biodistribution, Liver ([3]; iv, 30 min): 25.31 ± 1.09 % dose/organ
Biodistribution, Lung ([3]; iv, 30 min): .690 ± .481 % dose/organ
Biodistribution, Skin ([3]; iv, 30 min): .079 ± .004 % dose/organ
Biodistribution, Spleen ([3]; iv, 30 min): .155 ± .022 % dose/organ
Biodistribution, Blood ([3]; iv, 30 min): 2.823 ± .182 % dose/organ
Biodistribution, Muscle ([3]; iv, 30 min): 17.49 ± 1.37 % dose/organ
Brain/Blood ([3]; iv, 30 min): .073

CCC1(CC)C[NH+]2CC3(CCCCC3)[NH+]3CC(CC)(CC)[S][67Ga-]23[S]1 (stereo not drawn) [[^67 Ga]BAT-TECH]
blood and lung washout ([3]; in words): rapid blood and lung washout
myocardial uptake ([3]; in words): fast myocardial uptake
uptake in the liver, washout ([3]; iv): significant uptake in the liver which does not wash out with time
Biodistribution, Brain ([3]; iv, 2 min): 0.02 ± 0.004 % dose/organ
Biodistribution, Heart ([3]; iv, 2 min): 1.68 % dose/organ and 1.68 ± 0.12 % dose/organ
Biodistribution, Kidney ([3]; iv, 2 min): 6.94 ± 0.31 % dose/organ
Biodistribution, Liver ([3]; iv, 2 min): 21.52 ± 1.11 % dose/organ
Biodistribution, Lung ([3]; iv, 2 min): 2.07 ± 0.07 % dose/organ
Biodistribution, Skin ([3]; iv, 2 min): 5.44 ± 1.65 % dose/organ
Biodistribution, Spleen ([3]; iv, 2 min): 0.50 ± 0.06 % dose/organ
Biodistribution, Blood ([3]; iv, 2 min): 10.18 ± 0.30 % dose/organ
Biodistribution, Muscle ([3]; iv, 2 min): 13.89 ± 3.21 % dose/organ
Biodistribution, Brain ([3]; iv, 30 min): 0.01 ± 0.001 % dose/organ
Biodistribution, Heart ([3]; iv, 30 min): 0.52 ± 0.08 % dose/organ
Biodistribution, Kidney ([3]; iv, 30 min): 2.00 ± 0.10 % dose/organ
Biodistribution, Liver ([3]; iv, 30 min): 33.54 ± 4.42 % dose/organ
Biodistribution, Lung ([3]; iv, 30 min): 0.46 ± 0.09 % dose/organ
Biodistribution, Skin ([3]; iv, 30 min): 7.56 ± 1.60 % dose/organ
Biodistribution, Spleen ([3]; iv, 30 min): 0.15 ± 0.009 % dose/organ
heart uptake ([3]; iv, 30 min): 0.52 % dose/g
Biodistribution, Blood ([3]; iv, 30 min): 3.58 ± 0.08 % dose/organ
Biodistribution, Muscle ([3]; iv, 30 min): 21.14 ± 2.18 % dose/organ
Biodistribution, Brain ([3]; iv, 60 min): 0.01 ± 0.002 % dose/organ
Biodistribution, Heart ([3]; iv, 60 min): 0.26 ± 0.02 % dose/organ
Biodistribution, Kidney ([3]; iv, 60 min): 1.06 ± 0.14 % dose/organ
Biodistribution, Liver ([3]; iv, 60 min): 46.41 ± 2.39 % dose/organ
Biodistribution, Lung ([3]; iv, 60 min): 0.37 ± 0.009 % dose/organ
Biodistribution, Skin ([3]; iv, 60 min): 5.78 ± 0.92 % dose/organ
Biodistribution, Spleen ([3]; iv, 60 min): 0.11 ± 0.001 % dose/organ
Biodistribution, Blood ([3]; iv, 60 min): 4.54 ± 1.10 % dose/organ
Biodistribution, Muscle ([3]; iv, 60 min): 10.79 ± 1.85 % dose/organ
heart uptake ([3]; iv, 1 hour): 0.26 % dose/g
heart to blood ratio [3, 7]: comparable to or superior to those reported for [^68 Ga](5- MeOSal)3 TAME
heart to lung ratio [3, 7]: comparable to or superior to those reported for [^68 Ga](5- MeOSal)3 TAME
lipid solubility [4]: very lipid-soluble
partition coefficient (1-octanol/buffer) ([5]; pH 7): 147±5.18
partition coefficient (1-octanol/buffer) ([5]; pH 7.4): 72.3±3.47

COc1ccc2c(c1)C=NCC1(C)CN=Cc3cc(OC)ccc3[O][68Ga]([O]2)[O]c2ccc(OC)cc2C=NC1 [[^68 Ga](5-MeOSal)3 TAME, Gallium-68 1,1,1-tris (5-methoxysalicylaldimino-methyl)ethane]
heart uptake ([6]; 1 min postinjection): 0.97 % dose/whole heart
heart uptake ([6]; 30 min postinjection): 0.23 % dose/whole heart
heart uptake ([6]; 60 min postinjection): 0.14 % dose/whole heart
